Measurements: US10253039B2, “Inhibitors of bacterial DNA gyrase with efficacy against gram-negative bacteria” (priority 2014, dated 2019)
In brackets after ≈: the same amount, converted by molar mass. Read-outs that look alike come from different tables or passages of the source.

Assays:
Assay type in all cases: cell-based
[1] = system: Salmonella enterica subsp. enterica typhimurium; test: MIC, 20-strain panel
Method: (§1) A microdilution method in 96-well plates was used and the MIC protocol established by the Clinical Laboratory Standards Institute was followed. From a growing subculture, a 1:10000 inoculum of each strain in Luria-Bertani media was prepared and aliquoted 100 μL in 4 columns of wells, except for the top row wells, which contained 200 μL of inoculum. A solution of gyramide C2 was aliquoted into 3 of the wells containing 200 μL and DMSO was added to the 4th well. The liquid in each of wells was mixed with a multi-channel pipet and 100 μL was transferred to the next well and mixed. The 2-fold dilution was continued down the 96-well plate until 100 μL was left, which was discarded. The plates were incubated at 37° C. with shaking for 16-18 hours. The MIC was determined as the lowest concentration that inhibited growth and had no turbidity by visual inspection.
(§2) Minimum inhibitory concentrations of various gyramide compounds against 20 strains of bacteria were determined using the procedure described above.

[2] = system: Streptococcus pyogenes; test: MIC, 20-strain panel
Method: as §1, §2

[3] = system: Klebsiella pneumoniae subsp. pneumoniae; test: MIC, 20-strain panel
Method: as §1, §2

[4] = system: Shigella flexneri; test: MIC, 20-strain panel
Method: as §1, §2

[5] = system: E. coli MG1655; test: MIC, 20-strain panel; conditions: Escherichia coli, read-out: MIC
Method: as §1, §2

[6] = system: Staphylococcus epidermidis; test: MIC, 20-strain panel
Method: as §1, §2

[7] = system: Staphylococcus aureus subsp. aureus; test: MIC, 20-strain panel; conditions: read-out: MIC
Method: as §1, §2

[8] = system: Staphylococcus saprophyticus subsp. saprophyticus; test: MIC, 20-strain panel
Method: as §1, §2

[9] = system: Streptococcus agalactiae; test: MIC, 20-strain panel
Method: as §1, §2

[10] = system: E. coli JW5503 (deltolC); test: MIC, 20-strain panel; conditions: Escherichia coli
Method: as §1, §2

[11] = system: Edwardsiella tarda; test: MIC, microdilution in 96-well plates
Method: as §1, §2

[12] = system: E. coli BW25113; test: MIC, microdilution in 96-well plates; conditions: Escherichia coli, read-out: MIC
Method: as §1, §2

[13] = F: Salmonella enterica subsp. enterica Typhimurium
[14] = E: Klebsiella pneumoniae subsp. pneumoniae
[15] = H: Staphylococcus aureus subsp. aureus
[16] = Salmonella enterica subsp. enterica Typhimurium
[17] = Klebsiella pneumoniae subsp. pneumoniae
[18] = Staphylococcus aureus subsp. aureus

| Compound | MIC [1, 13] [µg/mL] | MIC [2] [µg/mL] | MIC [3, 14] [µg/mL] | MIC ([4]; G: Shigella flexneri) [µg/mL] | MIC ([5]; MG1655, A: E. coli MG1655) [µg/mL] | MIC [6] [µg/mL] | MIC [7, 15] [µg/mL] | MIC [8] [µg/mL] | MIC [9] [µg/mL] | MIC ([10]; C: E. coli JW5503 (deltolC)) [µg/mL] | MIC ([11]; D: Edwardsiella tarda) [µg/mL] | MIC ([12]; BW25113, B: E. coli BW25113) [µg/mL] | MIC [1, 16] [µg/mL] | MIC [3, 17] [µg/mL] | MIC [4] [µg/mL] | MIC ([5]; MG1655, E. coli MG1655) [µg/mL] | MIC [7, 18] [µg/mL] | MIC ([10]; E. coli JW5503 (deltolC)) [µg/mL] | MIC [11] [µg/mL] | MIC ([12]; BW25113, E. coli BW25113) [µg/mL] |
| --- | --- | --- | --- | --- | --- | --- | --- | --- | --- | --- | --- | --- | --- | --- | --- | --- | --- | --- | --- | --- |
| N#Cc1cccc(S(=O)(=O)N[C@@H]2CCN(Cc3ccc(-c4ccccn4)cc3)C2)c1 [Compound 46] | 8 (≈ 19.1 µM) | > 8 | > 8 | > 8 | > 8 | > 8 | > 8 | > 8 | > 8 | 1 (≈ 2.39 µM) | > 8 | > 8 |  |  |  |  |  |  |  |  |
| O=S(=O)(N[C@@H]1CCN(Cc2ccc(OCC(F)F)cc2)C1)c1cccc(OC(F)(F)F)c1 [Compound 89] | 8 (≈ 16.7 µM) | > 8 | > 8 | > 8 | > 8 | > 8 | > 8 | > 8 | > 8 | 0.5 (≈ 1.04 µM) | > 8 | > 8 |  |  |  |  |  |  |  |  |
| CC(C)Oc1ccc(CN2CC[C@@H](NS(=O)(=O)c3cnc4ccccc4c3)C2)cc1 [Compound 93] | > 8 | > 8 | > 8 | > 8 | > 8 | > 8 | > 8 | > 8 | > 8 | > 8 | > 8 | > 8 |  |  |  |  |  |  |  |  |
| CC(C)Oc1ccc(CN2CC[C@@H](NS(=O)(=O)c3ccc(F)c(C#N)c3)C2)cc1 [Compound 165] |  | > 8 |  |  |  | > 8 |  | > 8 | > 8 |  |  |  | > 8 | > 8 | > 8 | > 8 | > 8 | 4 (≈ 9.58 µM) | > 8 | > 8 |
| N#Cc1cccc(S(=O)(=O)N[C@@H]2CCN(Cc3ccc(-n4cccn4)cc3)C2)c1 [Compound 145] |  | > 8 |  |  |  | > 8 |  | > 8 | > 8 |  |  |  | > 8 | > 8 | > 8 | > 8 | > 8 | 8 (≈ 19.6 µM) | > 8 | > 8 |
| O=S(=O)(N[C@@H]1CCN(Cc2ccc(-c3ccc(Cl)cc3)cc2)C1)c1cccc(C(F)(F)F)c1 [Compound 102] | > 8 | ~8 (≈ 16.2 µM) | > 8 | > 8 | > 8 | 4 (≈ 8.08 µM) | 8 (≈ 16.2 µM) | > 8 | > 8 | ~8 (≈ 16.2 µM) | > 8 | > 8 |  |  |  |  |  |  |  |  |
| O=S(=O)(N[C@@H]1CCN(Cc2ccc(OC3CC3)cc2)C1)c1cc(C(F)(F)F)cc(C(F)(F)F)c1 [Compound 128] | > 8 | > 8 | > 8 | > 8 | > 8 | > 8 | > 8 | > 8 | > 8 | 8 (≈ 15.7 µM) | > 8 | > 8 |  |  |  |  |  |  |  |  |
| O=S(=O)(N[C@@H]1CCN(Cc2ccc(-c3ccccc3)cc2)C1)c1cc(S(=O)(=O)c2ccccc2)cs1 [Compound 37] | > 8 | > 8 | > 8 | > 8 | > 8 | > 8 | > 8 | > 8 | > 8 | > 8 | > 8 | > 8 |  |  |  |  |  |  |  |  |
| O=S(=O)(N[C@@H]1CCN(Cc2ccc(OC3CC3)cc2)C1)c1cnccc1Cl [Compound 169] |  | > 8 |  |  |  | > 8 |  | > 8 | > 8 |  |  |  | > 8 | > 8 | > 8 | > 8 | > 8 | > 8 | > 8 | > 8 |
| O=S(=O)(N[C@@H]1CCN(Cc2ccc(-c3ccccc3)cc2)C1)c1ccc(Cl)cn1 [Compound 141] |  | > 8 |  |  |  | > 8 |  | > 8 | > 8 |  |  |  | > 8 | > 8 | > 8 | > 8 | > 8 | ~8 (≈ 18.7 µM) | > 8 | > 8 |
